Assay results from patent US20090062122A1, “Cotton Growth Regulator” (FMC Corporation, priority 2006, published 2009).

What was measured:
[1] = test system: cotton, variety D&PL 555; experiment: % desiccation of cotton leaves, field trial; assay type: in vivo
Procedure: (§1) The trial was performed on cotton, variety D&PL 555. The formulated test compounds were diluted to the appropriate concentrations with water to which a crop oil concentrate (1% to 2% v/v) or a non-ionic surfactant (0.25% v/v) was added. The application of the test composition as a cotton plant growth regulator was performed using pressurized, over-the-top spray equipment consisting of a research scale boom sprayer. Deposit of the test composition was primarily to the top of the cotton plants, minimizing spray deposition to lower branches, leaves and fruit. The finished spray volume was 10 gallons per acre, with sprayer nozzle design, orientation and nozzle pressures chosen to prevent spray drift. Applications were made at first sign of cotton boll opening and at 15%, 20% and 40% open bolls.
(§2) The experimental design used randomized plots with 1 to 4 treatment rates of test composition and from 1 to 10 replications depending on the test (sees tables below). The size of each experimental plot was about 15 m^2. Testing was performed in Texas, North Carolina, Mississippi and Georgia.
(§3) Percent desiccation, percent defoliation, percent terminal control and percent open bolls were evaluated at 7 and 14 days after application (DAA) of the test composition. Inspection of cotton plants for insect control of armyworm larvae was performed at 2 DAA and insect damage to bolls was performed at the time of harvest
Desiccation refers to leaves or portions of leaves dried to debris following tissue death. […] An evaluation of the condition of leaves in the untreated check plots were observed. Then the test plots were individually evaluated. The percent of all leaves completely or partially desiccated by the test application were recorded, based upon live leaves and leaf debris within the test plot relative to foliage present in the untreated plot.
(§4) The results, shown as the mean of the indicated number of replications, were compared with results observed in the same trials with an untreated control.

[2] = test system: cotton, variety D&PL 555; experiment: % defoliation of cotton plants, field trial; assay type: in vivo; settings: 20% open boll application, 1 replicate
Procedure: as §1, §2, §3
Defoliation refers to removal of leaves. Percent defoliation rating approximates the proportion of leaves of all sizes shed per 100 leaves present prior to application of the cotton growth regulator compound. An evaluation of the foliage in the untreated check plots was first undertaken. Then the test plots were individually evaluated. The percent of leaves dropped by the plants in the treated plot was determined using observations within the plot and comparisons to foliage in the untreated plot.
as §4

**Q.** How did the “% Desiccation” value ([1]; 20% open boll application, 0.14 lb ai/a, 7 DAA, 1 replicate) turn out when CCCCSP(=O)(SCCCC)SCCCC [tribufos, S,S,S-tributyl phosphorotrithioate] was run?
**A.** 78%

**Q.** What about the “% Defoliation” value ([2]; 0.14 lb ai/a, 7 DAA) of the same compound?
**A.** 30%

**Q.** Which results are given for CC1=C(C)S(=O)(=O)CCS1(=O)=O [dimethipin, 2,3-dihydro-5,6-dimethyl-1,4-dithiin-1,1,4,4-tetraoxide]?
**A.** % Desiccation ([1]; 20% open boll application, 0.23 lb ai/a, 7 DAA, 1 replicate): 40%; % Defoliation ([2]; 0.23 lb ai/a, 7 DAA): 28%

**Q.** COC(=O)CSc1cc(/N=c2\sc(=O)n3n2CCCC3)c(F)cc1Cl [fluthiacet-methyl, methyl [[2-chloro-4-fluoro-5-[(tetrahydro-3-oxo-1H,3H-[1,3,4]thiadiazolo[3,4-a]pyridazin-1-ylidine)amino]phenyl]thio]acetate] was tested. Which “% Desiccation” value ([1]; first open boll application, 0.0018 lb ai/a, 7 DAA, 1 replicate) did it give?
**A.** 25%

**Q.** And the “% Desiccation” value ([1]; first open boll application, 0.0018 lb ai/a, 14 DAA, 1 replicate)?
**A.** 17%

**Q.** How did the “% Desiccation” value ([1]; 20% open boll application, 0.13 lb ai/a, 14 DAA, 1 replicate) turn out when C[n+]1ccc(-c2cc[n+](C)cc2)cc1.[Cl-].[Cl-] [paraquat, 1,1′-dimethyl-4,4′-bipyridinium dichloride] was run?
**A.** 90%

**Q.** What about the “% Defoliation” value ([2]; 0.13 lb ai/a, 14 DAA) of the same compound?
**A.** 8%

**Q.** Which results are given for CCCCCOC(=O)COc1cc(N2C(=O)C3=C(CCCC3)C2=O)c(F)cc1Cl [flumiclorac-pentyl ester, pentyl [2-chloro-4-fluoro-5-(1,3,4,5,6,7-hexahydro-1,3-dioxo-2H-isoindol-2-yl)phenoxy]acetate]?
**A.** % Desiccation ([1]; first open boll application, 0.027 lb ai/a, 7 DAA, 3 replicates): 16%; % Desiccation ([1]; first open boll application, 0.027 lb ai/a, 14 DAA, 3 replicates): 13%; % Desiccation ([1]; first open boll application, 0.04 lb ai/a, 7 DAA, 3 replicates): 19%; % Desiccation ([1]; first open boll application, 0.04 lb ai/a, 14 DAA, 3 replicates): 12%

**Q.** What does the source list for CCOC(=O)COc1cc(-c2nn(C)c(OC(F)F)c2Cl)c(F)cc1Cl [pyraflufen-ethyl, ethyl 2-chloro-5-[4-chloro-5-(difluoromethoxy)-1-methyl-1H-pyrazol-3-yl]-4-fluorophenoxyacetate]?
**A.** % Desiccation ([1]; first open boll application, 0.0008 lb ai/a, 7 DAA, 3 replicates): 13%; % Desiccation ([1]; first open boll application, 0.0008 lb ai/a, 14 DAA, 3 replicates): 11%; % Desiccation ([1]; first open boll application, 0.0016 lb ai/a, 7 DAA, 3 replicates): 19%; % Desiccation ([1]; first open boll application, 0.0016 lb ai/a, 14 DAA, 3 replicates): 13%

**Q.** With CC(C)N.O=C(O)CNCP(=O)(O)O [glyphosate, N-(phosphonomethyl)glycine isopropylamine salt] as the compound, how does the “% Desiccation” value ([1]; 20% open boll application, 0.5 lb ai/a, 14 DAA, 1 replicate) read?
**A.** 67%

**Q.** And the “% Defoliation” value ([2]; 0.5 lb ai/a, 14 DAA)?
**A.** 7%
